The values that follow are results of earlier work, collected in patent US12599665B2, “Gene fusions for control of genetically modified cells” (A2 Biotherapeutics, Inc., priority 2020, dated 2026).

Data set [1] addresses T1, ER(T2) (human ER LBD G400V/M543A/L544A) (Homo sapiens, UniProt P03372, G400V/L544A/M543A).
T1 construct: a human ER LBD and comprising point mutations G400V/M543A/L544A, which is termed ER(T2)
T1 sequence (P03372 311-547 G400V/M543A/L544A limits assumed): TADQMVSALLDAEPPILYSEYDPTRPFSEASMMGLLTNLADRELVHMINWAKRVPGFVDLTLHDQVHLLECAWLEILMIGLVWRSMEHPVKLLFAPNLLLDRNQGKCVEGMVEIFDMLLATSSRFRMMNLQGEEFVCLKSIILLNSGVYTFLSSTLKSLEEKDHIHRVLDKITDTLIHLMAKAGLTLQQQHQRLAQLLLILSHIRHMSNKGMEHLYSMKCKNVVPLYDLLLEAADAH
The settings on record: ER(T2) vs ER(T); cited from earlier work.

The target in data set [2] is T2, Peroxisome proliferator-activated receptor-γ (NR1C3) (Homo sapiens, UniProt P37231).
T2 sequence (P37231 1-505): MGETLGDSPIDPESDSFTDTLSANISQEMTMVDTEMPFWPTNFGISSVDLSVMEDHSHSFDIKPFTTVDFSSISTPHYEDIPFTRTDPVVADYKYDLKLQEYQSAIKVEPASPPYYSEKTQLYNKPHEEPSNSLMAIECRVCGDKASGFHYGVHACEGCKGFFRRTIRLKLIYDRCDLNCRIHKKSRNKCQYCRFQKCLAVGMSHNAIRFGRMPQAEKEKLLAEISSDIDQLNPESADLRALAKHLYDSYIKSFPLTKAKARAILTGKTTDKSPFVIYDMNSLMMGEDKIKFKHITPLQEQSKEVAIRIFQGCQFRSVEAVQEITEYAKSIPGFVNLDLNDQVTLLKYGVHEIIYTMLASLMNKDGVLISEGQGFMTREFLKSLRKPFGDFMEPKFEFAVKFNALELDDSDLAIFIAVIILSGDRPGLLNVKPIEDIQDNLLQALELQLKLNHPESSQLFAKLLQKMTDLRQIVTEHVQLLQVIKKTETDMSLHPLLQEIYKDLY
The settings on record: antagonist, Table 2, cited from earlier work.

Data set [3] concerns the target T3, Peroxisome proliferator-activated receptor-α (NR1C1) (Homo sapiens, UniProt Q07869).
T3 sequence (Q07869 1-468): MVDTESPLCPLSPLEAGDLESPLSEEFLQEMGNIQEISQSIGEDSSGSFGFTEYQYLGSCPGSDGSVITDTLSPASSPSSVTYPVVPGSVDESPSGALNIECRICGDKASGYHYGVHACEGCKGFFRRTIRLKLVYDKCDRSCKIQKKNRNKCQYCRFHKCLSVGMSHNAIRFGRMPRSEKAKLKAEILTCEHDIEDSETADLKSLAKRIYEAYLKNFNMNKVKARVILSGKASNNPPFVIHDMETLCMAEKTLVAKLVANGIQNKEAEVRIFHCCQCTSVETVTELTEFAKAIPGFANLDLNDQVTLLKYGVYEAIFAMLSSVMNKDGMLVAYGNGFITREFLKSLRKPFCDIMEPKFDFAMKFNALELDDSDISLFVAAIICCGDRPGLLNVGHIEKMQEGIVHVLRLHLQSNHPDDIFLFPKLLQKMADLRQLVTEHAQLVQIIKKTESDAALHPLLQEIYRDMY
The settings on record: antagonist, Table 2; cited from earlier work.

For data set [4], the target named is Estrogen receptor-β (NR3A2) (Homo sapiens, UniProt Q92731). The following applies: antagonist, Table 2; cited from earlier work.
Sequence of Estrogen receptor-β (NR3A2) (Q92731 whole entry): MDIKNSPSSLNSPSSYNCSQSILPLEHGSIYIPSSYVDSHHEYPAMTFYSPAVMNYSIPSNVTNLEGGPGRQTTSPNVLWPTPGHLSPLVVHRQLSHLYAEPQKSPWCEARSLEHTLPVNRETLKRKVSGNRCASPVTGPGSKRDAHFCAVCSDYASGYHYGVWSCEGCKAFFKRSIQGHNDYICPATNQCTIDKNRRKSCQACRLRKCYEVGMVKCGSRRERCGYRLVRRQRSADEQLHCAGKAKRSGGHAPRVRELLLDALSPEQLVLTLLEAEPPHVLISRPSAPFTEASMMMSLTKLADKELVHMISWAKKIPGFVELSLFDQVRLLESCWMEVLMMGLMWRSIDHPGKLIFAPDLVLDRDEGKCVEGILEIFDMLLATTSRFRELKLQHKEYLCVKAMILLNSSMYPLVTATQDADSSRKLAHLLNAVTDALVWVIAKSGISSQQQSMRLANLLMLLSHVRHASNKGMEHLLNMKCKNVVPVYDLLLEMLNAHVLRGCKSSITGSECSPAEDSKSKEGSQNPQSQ
The next data set has as its target T4, Rev-Erb-α (NR1D1) (Homo sapiens, UniProt P20393).
T4 sequence (P20393 1-614): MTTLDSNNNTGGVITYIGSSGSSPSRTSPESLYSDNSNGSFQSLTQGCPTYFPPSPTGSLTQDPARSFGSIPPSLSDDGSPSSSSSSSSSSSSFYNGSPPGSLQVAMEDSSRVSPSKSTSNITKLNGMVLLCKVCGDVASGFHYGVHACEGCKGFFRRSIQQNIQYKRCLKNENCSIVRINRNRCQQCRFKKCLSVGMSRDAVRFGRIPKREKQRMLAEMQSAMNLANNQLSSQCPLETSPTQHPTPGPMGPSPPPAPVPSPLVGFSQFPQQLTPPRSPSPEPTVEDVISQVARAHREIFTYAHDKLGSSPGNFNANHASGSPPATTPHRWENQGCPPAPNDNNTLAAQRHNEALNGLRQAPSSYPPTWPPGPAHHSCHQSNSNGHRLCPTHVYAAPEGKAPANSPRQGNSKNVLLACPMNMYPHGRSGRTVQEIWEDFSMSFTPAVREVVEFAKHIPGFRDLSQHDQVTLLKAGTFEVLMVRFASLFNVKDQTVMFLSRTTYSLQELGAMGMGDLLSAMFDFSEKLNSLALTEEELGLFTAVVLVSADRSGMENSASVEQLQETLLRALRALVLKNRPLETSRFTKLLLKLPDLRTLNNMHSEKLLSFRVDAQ
The following applies: antagonist, Table 2; cited from earlier work.

In data set [5] the target is T5, Vitamin D receptor (Gallus gallus, UniProt O42392).
T5 sequence (O42392 1-451): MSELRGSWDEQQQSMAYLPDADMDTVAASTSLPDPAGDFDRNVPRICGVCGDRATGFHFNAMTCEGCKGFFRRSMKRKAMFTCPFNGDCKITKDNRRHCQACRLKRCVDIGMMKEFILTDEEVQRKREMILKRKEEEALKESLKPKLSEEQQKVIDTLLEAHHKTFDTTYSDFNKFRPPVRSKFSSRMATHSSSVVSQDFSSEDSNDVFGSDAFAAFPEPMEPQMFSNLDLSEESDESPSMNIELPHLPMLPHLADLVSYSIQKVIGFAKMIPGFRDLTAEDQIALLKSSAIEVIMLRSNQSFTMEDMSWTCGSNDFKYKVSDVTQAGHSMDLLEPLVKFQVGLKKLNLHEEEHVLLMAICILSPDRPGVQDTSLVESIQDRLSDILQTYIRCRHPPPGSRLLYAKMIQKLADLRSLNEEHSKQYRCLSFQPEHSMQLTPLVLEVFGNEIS
The settings on record: antagonist, Table 2; Chicken; cited from earlier work.

Data set [6] has as its target T6, Vitamin D receptor (Homo sapiens, UniProt P11473).
T6 sequence (P11473 1-427): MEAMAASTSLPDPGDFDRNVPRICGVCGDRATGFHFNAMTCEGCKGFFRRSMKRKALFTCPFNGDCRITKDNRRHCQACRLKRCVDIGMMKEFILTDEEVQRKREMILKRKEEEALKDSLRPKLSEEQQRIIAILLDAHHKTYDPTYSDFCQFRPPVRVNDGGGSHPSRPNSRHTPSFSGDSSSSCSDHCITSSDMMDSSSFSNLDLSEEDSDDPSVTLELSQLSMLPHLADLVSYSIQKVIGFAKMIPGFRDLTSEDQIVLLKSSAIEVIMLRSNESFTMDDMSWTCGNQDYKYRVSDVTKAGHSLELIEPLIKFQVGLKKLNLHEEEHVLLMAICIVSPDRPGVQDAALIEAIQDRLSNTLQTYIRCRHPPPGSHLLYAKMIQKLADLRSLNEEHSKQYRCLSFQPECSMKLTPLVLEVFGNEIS
The following applies: antagonist, Table 2; cited from earlier work.

In data set [7] the target is T7, Mineralocorticoid receptor (NR3C2) (Homo sapiens, UniProt P08235).
T7 sequence (P08235 1-984): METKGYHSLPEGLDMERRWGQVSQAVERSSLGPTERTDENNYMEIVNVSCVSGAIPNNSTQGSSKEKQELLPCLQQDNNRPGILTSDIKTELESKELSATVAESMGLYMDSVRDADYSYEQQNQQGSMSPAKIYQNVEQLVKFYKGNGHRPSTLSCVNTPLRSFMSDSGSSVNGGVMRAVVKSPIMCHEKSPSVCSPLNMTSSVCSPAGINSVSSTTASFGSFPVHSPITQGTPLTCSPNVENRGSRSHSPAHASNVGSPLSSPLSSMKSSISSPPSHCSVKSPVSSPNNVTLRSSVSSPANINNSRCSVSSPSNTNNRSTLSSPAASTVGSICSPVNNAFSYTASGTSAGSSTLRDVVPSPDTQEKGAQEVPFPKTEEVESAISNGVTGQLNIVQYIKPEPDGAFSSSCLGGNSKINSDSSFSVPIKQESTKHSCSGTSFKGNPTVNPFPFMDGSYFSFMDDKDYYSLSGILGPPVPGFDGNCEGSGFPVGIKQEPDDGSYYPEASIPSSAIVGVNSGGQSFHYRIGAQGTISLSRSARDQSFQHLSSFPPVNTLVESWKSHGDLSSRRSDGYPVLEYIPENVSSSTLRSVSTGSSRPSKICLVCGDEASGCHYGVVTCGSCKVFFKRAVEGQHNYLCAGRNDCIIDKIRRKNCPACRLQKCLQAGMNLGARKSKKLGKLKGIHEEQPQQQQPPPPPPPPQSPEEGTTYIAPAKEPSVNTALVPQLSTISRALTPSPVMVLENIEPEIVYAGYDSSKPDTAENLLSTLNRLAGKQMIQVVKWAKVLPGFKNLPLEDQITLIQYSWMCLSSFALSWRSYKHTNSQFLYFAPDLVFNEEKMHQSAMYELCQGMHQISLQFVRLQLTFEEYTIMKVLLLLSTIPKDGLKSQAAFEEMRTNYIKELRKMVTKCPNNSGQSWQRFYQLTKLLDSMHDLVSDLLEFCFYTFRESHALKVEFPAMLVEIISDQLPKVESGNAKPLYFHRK
The following applies: antagonist, Table 2; cited from earlier work.

In data set [8] the target is T8, Glucocorticoid receptor (NR3C1) (Homo sapiens, UniProt P04150).
T8 sequence (P04150 1-777): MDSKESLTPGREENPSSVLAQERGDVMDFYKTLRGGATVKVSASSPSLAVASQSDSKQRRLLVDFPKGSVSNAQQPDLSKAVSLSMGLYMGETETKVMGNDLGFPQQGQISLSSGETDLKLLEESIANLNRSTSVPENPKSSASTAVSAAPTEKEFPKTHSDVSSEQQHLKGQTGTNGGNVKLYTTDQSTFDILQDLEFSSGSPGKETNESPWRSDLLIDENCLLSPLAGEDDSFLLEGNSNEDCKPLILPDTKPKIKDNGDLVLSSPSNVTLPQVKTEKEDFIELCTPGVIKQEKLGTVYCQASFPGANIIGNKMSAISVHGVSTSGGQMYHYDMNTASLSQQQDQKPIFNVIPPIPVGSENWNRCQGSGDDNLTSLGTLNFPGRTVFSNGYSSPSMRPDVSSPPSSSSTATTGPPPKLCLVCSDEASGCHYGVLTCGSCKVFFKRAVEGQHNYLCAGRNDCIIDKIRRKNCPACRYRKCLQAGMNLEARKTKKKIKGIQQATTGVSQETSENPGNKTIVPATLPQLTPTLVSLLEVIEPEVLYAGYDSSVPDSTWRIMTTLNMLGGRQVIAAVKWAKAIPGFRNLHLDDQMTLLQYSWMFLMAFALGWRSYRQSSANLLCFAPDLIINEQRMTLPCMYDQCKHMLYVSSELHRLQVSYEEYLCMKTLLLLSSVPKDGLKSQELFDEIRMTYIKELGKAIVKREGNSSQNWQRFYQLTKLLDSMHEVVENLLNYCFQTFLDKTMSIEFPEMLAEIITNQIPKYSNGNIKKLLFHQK
The settings on record: antagonist, Table 2; cited from earlier work.

Regarding 4-hydroxytamoxifen [4-OH-Tamoxifen], in data set [1], the “sensitivity of ER(T2) to 4-OH-Tamoxifen relative to the ER(T) mutant” value was “roughly 10 fold”. Regarding `COC(=O)[C@]12CCC(C)(C)C[C@H]1[C@H]1C(=O)C=C3[C@@]4(C)C=C(C#N)C(=O)C(C)(C)[C@@H]4CC[C@@]3(C)[C@]1(C)CC2` [CDDO-Me, Bardoxolone methyl], the pKi in data set [2] was 6.9). In the case of `CCC(=O)NC[C@H](Cc1ccc(OCCc2nc(-c3ccccc3)oc2C)cc1)N/C(C)=C\C(=O)c1ccc(C(F)(F)F)cc1` [GW6471], the pIC50 entry in data set [3] is “(pIC50 6.6)”. In the case of `O=C(Nc1ccccc1)c1cc([N+](=O)[O-])ccc1Cl` [GW9662], the pIC50 entry in data set [2] (Irreversible inhibition) is on record as “(pIC50 8.1)”. With `Oc1ccc(-c2c(-c3ccccc3)nn3c(C(F)(F)F)cc(C(F)(F)F)nc23)cc1` [PHTPP], the pKi entry in data set [4] was “(pKi 6.9) (CAS”. `CC[C@@H]1Cc2cc(O)ccc2C2=C1c1ccc(O)cc1C[C@H]2CC` [R,R-THC]: the pKi in [4] is given as 8.4) (CAS. Consider `CCOC(=O)C1Cc2ccccc2CN1C(=O)c1ccc(SC)s1` (stereo not drawn) [SR8278], for which the pIC50 at Rev-Erb-α (NR1D1) was 6.5) (CAS.

`C=C1C[C@H](C[C@@H](C)[C@H]2CC[C@H]3/C(=C/C=C4/C[C@@H](O)C[C@H](O)C4=C)CCC[C@]23C)OC1=O` [TEI-9647]: at Vitamin D receptor [5], the pIC50 result is reported as “(pIC50 8.2)”.

As for `C=C1/C(=C\C=C2/CCC[C@]3(C)[C@@H]([C@H](C)/C=C/[C@@H](O)C4(C(=O)OCCCC)CC4)CC[C@@H]23)C[C@@H](O)C[C@@H]1O` [ZK159222], at Vitamin D receptor [6], the pIC50 result is recorded as “(pIC50 7.5)”.

Take `CCOc1ncc(C)c2c1[C@H](c1ccc(C#N)cc1OC)C(C(N)=O)=C(C)N2` [finerenone]: the pIC50 result in [7] is “(pIC50 7.7),”.

Regarding `CN(C)c1ccc([C@H]2C[C@]3(C)[C@@H](CC[C@]3(O)CCCO)[C@@H]3CCC4=CC(=O)CCC4=C32)cc1` [onapristone], the pIC50 entry in [7] is “(pIC50 6.3),”; in data set [8], “(pIC50 7.6),”.
